pIC50: −log10 of the molar value.
How the values were obtained:
tubulin = assay: Tubulin polymerization assay (Cytoskeleton, Inc. inhibitor screening protocol); format: biochemical; settings: 3 μM, 37C, compared to DMSO control
Method: Example 4. Tubulin Polymerization Assay
Compounds described herein were tested in a tubulin polymerization inhibition assay using the general manufacturer's protocol for inhibitor screening (Cytoskeleton, Inc. BK01 IP). DMSO was used as a negative control, and vinblastine was tested as a positive control. All compounds were tested at a concentration of 3 μM, and incubation was carried out at 37C for 60 minutes. Results were calculated as a percent inhibition (compared to DMSO control) after 60 min of incubation, the results of which are shown in Table 3.

U87MG cells = assay: Cytotoxicity assay (cell viability, CellTiter 96 Aqueous MTS); format: cell-based; settings: Homo sapiens, U-87 MG, 72 h, 72 hours incubation, starting concentration 50 uM, 9 point half log dilution, average where tested repeatedly
Summary of the method: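 U87MG cells plated at 7×10^3 cells/well overnight, then treated 72 h with 9-point half-log dilutions from a 50 uM starting concentration. Viability measured with CellTiter 96 Aqueous MTS; IC50 calculated from viability.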

Structure (SMILES) | % Tubulin Polymerization at 60 min (tubulin) | pIC50 (U87MG cells)
Cc1ncccc1C(=O)NCCCc1ccc(-c2ccccc2F)cc1 [Compound 81, N-(3-(2′-fluoro-[1,1′-biphenyl]-4-yl)propyl)-2-methylnicotinamide] | A (A is < 20%) | > 6.30
Nc1ncc(C(=O)NCCCc2ccc(-c3ccccc3F)cc2)cn1 [Compound 96] | A (A is < 20%) | > 6.30
O=C(Cc1ccc(F)cc1)NCCCc1ccc(-c2ccccc2F)cc1 [Compound 284, N-(3-(2′-fluoro-[1,1′-biphenyl]-4-yl)propyl)-2-(4-fluorophenyl)acetamide] |  | > 6.30
Cc1oncc1C(=O)NCCCc1ccc(-c2ccccc2F)cc1 [Compound 285, N-(3-(2′-fluoro-[1,1′-biphenyl]-4-yl)propyl)-5-methylisoxazole-4-carboxamide] |  | < 5.30
Cc1cc2ncc(C(=O)NCCCc3ccc(-c4ccccc4F)cc3)cn2n1 [Compound 286, N-(3-(2′-fluoro-[1,1′-biphenyl]-4-yl)propyl)-2-methylpyrazolo[1,5-a]pyrimidine-6-carboxamide] |  | > 6.30
Cc1ncoc1C(=O)NCCCc1ccc(-c2ccccc2F)cc1 [Compound 290, N-(3-(2′-fluoro-[1,1′-biphenyl]-4-yl)propyl)-4-methyloxazole-5-carboxamide] |  | < 5.30
COc1ncccc1C(=O)NCCCc1ccc(-c2ccccc2F)cc1 [Compound 292, N-(3-(2′-fluoro-[1,1′-biphenyl]-4-yl)propyl)-2-methoxynicotinamide] |  | < 5.30
O=C(Cc1ccc2c(c1)OCCO2)NCCCc1ccc(-c2ccccc2F)cc1 [Compound 293, 2-(2,3-dihydrobenzo[b][1,4]dioxin-6-yl)-N-(3-(2′-fluoro-[1,1′-biphenyl]-4-yl)propyl)acetamide] |  | < 5.30
Cn1ccc2cc(-c3ccc(CCCC(=O)Nc4cccnc4)cc3)cnc21 [Compound 294, 4-(4-(1-methyl-1H-pyrrolo[2,3-b]pyridin-5-yl)phenyl)-N-(pyridin-3-yl)butanamide] |  | 6.00 to 6.30
O=C(CCCc1ccc(-c2c[nH]c3ncccc23)cc1)Nc1cccnc1 [Compound 295, 4-(4-(1H-pyrrolo[2,3-b]pyridin-3-yl)phenyl)-N-(pyridin-3-yl)butanamide] |  | 5.30 to 6.00
Cn1cnc2cc(-c3ccc(CCCC(=O)Nc4cccnc4)cc3)ccc21 [Compound 296, 4-(4-(1-methyl-1H-benzo [d]imidazol-5-yl)phenyl)-N-(pyridin-3-yl)butanamide] |  | > 6.30
Cc1nc2cc(-c3ccc(CCCC(=O)Nc4cccnc4)cc3)ccc2n1C [Compound 297, 4-(4-(1,2-dimethyl-1H-benzo[d]imidazol-5-yl)phenyl)-N-(pyridin-3-yl)butanamide] |  | > 6.30
Cn1cnc2ccc(-c3ccc(CCCC(=O)Nc4cccnc4)cc3)cc2c1=O [Compound 299, 4-(4-(3-methyl-4-oxo-3,4-dihydroquinazolin-6-yl)phenyl)-N-(pyridin-3-yl)butanamide] |  | < 5.30
Cc1cc(-c2ccc(CCCC(=O)Nc3cccnc3)cc2)cc2cn[nH]c12 [Compound 301, 4-(4-(7-methyl-1H-indazol-5-yl)phenyl)-N-(pyridin-3-yl)butanamide] |  | > 6.30
Cc1cc2[nH]ncc2cc1-c1ccc(CCCC(=O)Nc2cccnc2)cc1 [Compound 302, 4-(4-(6-methyl-1H-indazol-5-yl)phenyl)-N-(pyridin-3-yl)butanamide] |  | 5.30 to 6.00
Cc1ccc(C(=O)NCC2(Cc3ccc(-c4ccc5c(cnn5C)c4)cc3)CC2)cn1 [Compound 303, 6-methyl-N-((1-(4-(1-methyl-1H-indazol-5-yl)benzyl)cyclopropyl)methyl) nicotinamide] |  | < 5.30

Structure (SMILES) | % Tubulin Polymerization at 60 min (tubulin) | pIC50 (U87MG cells)
COc1cccc(-c2ccc(CCCNC(=O)c3cnc(C)s3)cc2)c1F [Compound 304, N-(3-(2′-fluoro-3′-methoxy-[1,1′-biphenyl]-4-yl)propyl)-2-methylthiazole-5-carboxamide] |  | > 6.30
Cc1ncc(C(=O)NCCCc2ccc(-c3ccc4c(cnn4C)c3)cc2)s1 [Compound 305, 2-methyl-N-(3-(4-(1-methyl-1H-indazol-5-yl)phenyl)propyl)thiazole-5-carboxamide] |  | > 6.30
O=C(NCCCc1ccc(-c2ccc3ncccc3c2)cc1)c1cncnc1 [Compound 306, N-(3-(4-(quinolin-6-yl)phenyl)propyl)pyrimidine-5-carboxamide] |  | > 6.30
O=C(NCCCc1ccc(-c2cnc3[nH]ccc3c2)cc1)c1cncnc1 [Compound 307, N-(3-(4-(1H-pyrrolo [2,3-b]pyridin-5-yl)phenyl)propyl)pyrimidine-5-carboxamide] |  | > 6.30
Cc1ncc(C(=O)NCCCc2ccc(-c3ccc4[nH]ncc4c3C)cc2)s1 [Compound 308, 2-methyl-N-(3-(4-(4-methyl-1H-indazol-5-yl)phenyl)propyl)thiazole-5-carboxamide] |  | > 6.30
Cc1ncc(C(=O)NCCCc2ccc(-c3cnc4[nH]ccc4c3)cc2)s1 [Compound 309, N-(3-(4-(1H-pyrrolo[2,3-b]pyridin-5-yl)phenyl)propyl)-2-methylthiazole-5-carboxamide] |  | > 6.30
Cc1ncccc1C(=O)NCCCc1ccc(-c2ccc3[nH]ncc3c2C)cc1 [Compound 310, 2-methyl-N-(3-(4-(4-methyl-1H-indazol-5-yl)phenyl)propyl)nicotinamide] |  | > 6.30
Cc1ncccc1C(=O)NCCCc1ccc(-c2cnc3[nH]ccc3c2)cc1 [Compound 311, N-(3-(4-(1H-pyrrolo[2,3-b]pyridin-5-yl)phenyl)propyl)-2-methylnicotinamide] |  | > 6.30
Cc1ccc(C(=O)NCCCc2ccc(-c3ccc4c(c3)OCC(=O)N4)cc2)cn1 [Compound 312, 6-methyl-N-(3-(4-(3-oxo-3,4-dihydro-2H-benzo[b][1,4]oxazin-7-yl)phenyl)propyl)nicotinamide] |  | > 6.30
Cc1cc(C(=O)NCCCc2ccc(-c3ccc4c(c3)OCC(=O)N4)cc2)n(C)n1 [Compound 313, 1,3-dimethyl-N-(3-(4-(3-oxo-3,4-dihydro-2H-benzo[b][1,4]oxazin-7-yl)phenyl)propyl)-1H-pyrazole-5-carboxamide] |  | > 6.30
Cc1ncccc1C(=O)NCCCc1ccc(-c2ccc3c(c2)OCC(=O)N3)cc1 [Compound 314, 2-methyl-N-(3-(4-(3-oxo-3,4-dihydro-2H-benzo[b][1,4]oxazin-7-yl)phenyl)propyl)nicotinamide] |  | > 6.30
Cc1ccc(C(=O)NCCCc2ccc(-c3ccc4[nH]c(=O)ccc4c3)cc2)cn1 [Compound 315, 6-methyl-N-(3-(4-(2-oxo-1,2-dihydroquinolin-6-yl)phenyl)propyl)nicotinamide] |  | > 6.30
COc1ccc(CC(=O)NCCCc2ccc(-c3cnc4[nH]ccc4c3)cc2)cc1 [Compound 316, N-(3-(4-(1H-pyrrolo[2,3-b]pyridin-5-yl)phenyl)propyl)-2-(4-methoxyphenyl)acetamide] |  | > 6.30
COc1cccc(-c2ccc(CCCNC(=O)c3cccnc3C)cc2)c1F [Compound 317, N-(3-(2′-fluoro-3′-methoxy-[1,1′-biphenyl]-4-yl)propyl)-2-methylnicotinamide] |  | > 6.30
CC[C@]1(O)C[C@@H]2CN(CCc3c([nH]c4ccccc34)[C@@](C(=O)OC)(c3cc4c(cc3OC)N(C)[C@H]3[C@@](O)(C(=O)OC)[C@H](OC(C)=O)[C@]5(CC)C=CCN6CC[C@]43[C@@H]65)C2)C1 [Vinblastine, vinblastine, reference compound] | A (A is < 20%) | 
